Laboratory results taken from patent US11491175B2, “Synergistic bioactive compositions for enhancing cellular energy” (CELAGENEX RESEARCH (INDIA) PVT. LTD., priority 2019, dated 2022).
Several values for one entry are separate records, joined by “and”; a condition that tells them apart may be missing. Equal entries are not always repeated.

Columns and labels:
HepG2 cells = assay: Estimation of cellular respiration by measuring cellular ATP levels in HepG2 cells; assay type: cell-based, Human; settings: for Cellular ATP / Percentage enhancement of cellular ATP levels over control: HepG2, 2 hours treatment
Description: The test substances were evaluated for their in vitro effect on cellular energy by measuring cellular ATP levels in human Hepatocytes (HepG2) cell line.
HepG2 cells were trypsinized from stock culture flasks and the cell count was adjusted to 1.0×10^5 cells/ml to obtain a cell suspension that was seeded into a 96-well plate. […] After 2 hours of treatment, the plate was washed with phosphate buffer saline. The cellular ATP levels determination was performed according to the instructions given in the kit manual (SIGMA, #MAK190). At the end of the experiment, the optical density was read at 570 nm using microplate reader. From the absorbance values, the cellular ATP levels were estimated using kit protocol and the concentration of cellular ATP in treated groups were determined in comparison to the control groups.

[1] = system: HepG2 (Human Hepatocyte) cell line; assay: In vitro cytotoxicity by MTT colorimetric assay on HepG2 cell line; assay type: cell-based; settings: for % Inhibition: 72 hours incubation
Description: The in vitro cytotoxicity study was performed on HepG2 (Human Hepatocyte) cell line to find a nontoxic concentration of the test substances by MTT colorimetric assay and evaluate their potential on cellular respiration by measuring cellular ATP levels.
About 10 mg of all the test substances (as indicated in Table 1) were separately dissolved with 100 μl of Dimethyl sulfoxide (DMSO) and volume was made up with Dulbecco's Modified Eagle Medium-High glucose (DMEM-HG) supplemented with 2% inactivated Fetal Bovine Serum (FBS) to obtain a stock solution of 1 mg/ml concentration and sterilized by 0.22p, syringe filtration. Serial two-fold dilutions were prepared from the stock for carrying out further studies.
The monolayer cell culture was trypsinized and the cell count was adjusted to 1.0×10^5 cells/ml using Ham's F12 medium containing 10% FBS to obtain a cell suspension. To each well of the 96 well microtitre plate, 0.1 ml of the diluted cell suspension was added. After 24 hours, when a partial monolayer was formed, the supernatant was flicked off, the monolayer was washed once with medium and 100 μl of different concentrations of test substances were added. The plate was then incubated at 37° C. for 72 hours in a 5% CO2 atmosphere, and microscopic examination was carried out and observations were noted every 24 hours.
After 72 hours of incubation, the drug solutions in the wells were discarded and 50 μl of MTT in PBS was added to each well. The plate was gently shaken and incubated for 3 hr at 37° C. in a 5% CO2 atmosphere. The supernatant was removed and 100 μl of 2-propanol was added and the plate was gently shaken to solubilize the formed formazan. The absorbance was measured using a microplate reader at a wavelength of 540 nm. The percentage growth inhibition was calculated using the standard formula. The concentration of test substances needed to inhibit the growth of the cell by 50% i.e., CTC50 values were generated from the dose-response curves.

[2] = along with H2O2 (20 μM) (IMP 500 μg/ml, NMN 250 μg/ml, IMP + NMN 500 + 250 μg/ml)
[3] = substance alone (IMP 500 μg/ml, NMN 250 μg/ml, IMP + NMN 500 μg/ml, H2O2 20 μM)

Compound | Cellular ATP (HepG2 cells; [2]) [nmol] | Percentage enhancement of cellular ATP levels over control (HepG2 cells; [2]) [%] | Cellular ATP (HepG2 cells; [3]) [nmol] | Percentage enhancement of cellular ATP levels over control (HepG2 cells; substance alone (IMP 500 μg/ml, NMN 250 μg/ml, IMP + NMN 2:1 500 μg/ml), over hydrogen peroxide control) [%] | Percentage enhancement of cellular ATP levels over control (HepG2 cells; substance alone (IMP 500 μg/ml, NMN 250 μg/ml, IMP + NMN 2:1 500 μg/ml), over hydrogen peroxide control, listed as G4) [%] | cellular ATP levels (in words) (HepG2 cells; HepG2, in combination with Hydrogen peroxide (20 μM)) | % Inhibition ([1]; test conc. 62.5 μg/ml) [%] | % Inhibition ([1]; test conc. 125 μg/ml) [%] | % Inhibition ([1]; test conc. 250 μg/ml) [%] | % Inhibition ([1]; test conc. 500 μg/ml) [%] | % Inhibition ([1]; test conc. 1000 μg/ml) [%] | CTC 50 ([1]; 72 hours, concentration needed to inhibit cell growth by 50%)
NC(=O)c1ccc[n+]([C@@H]2O[C@H](COP(=O)([O-])O)[C@@H](O)[C@H]2O)c1 [NMN, β-Nicotinamide mononucleotide] | 8.28 ± 0.65 | 29.01 ± 4.25 | 4.43 ± 0.23 | 13.97±1.25 | 13.97 ± 1.25 | increased the cellular ATP levels significantly | 2.26 ± 1.49 | 21.59 ± 1.89 | 30.51 ± 0.38 | 59.95 ± 1.78 | 76.59 ± 0.54 | 415 ± 8.99 µg/mL and 415.92 ± 8.99 µg/mL
Hydrogen Peroxide [Composition G2] | – | – | 0.86 ± 0.02 | – | – | – | – | – | – | – | – | –
